Source: the NIST ThermoML archive (doi:10.1021/je050116g)

How the values were obtained:
[1] = 298.15 K; 101.33 kPa; Liquid
[2] = relative permittivity at various frequencies (dimensionless); xn = mol fraction of the nth substance listed; details: 298.15 K, 101.33 kPa, Liquid, Frequency=0.03 MHz, Parallel plate capacitor
[3] = xn = mol fraction of the nth substance listed; details: 298.15 K, 101.33 kPa, Liquid

CCCCO [butan-1-ol]
Details	mass density [kg/m3]
[1]	805.767

CCCCCCCCCCO [decan-1-ol]
Details	mass density [kg/m3]
[1]	826.421

CCCCCCCCCCO [decan-1-ol] + CCCCCCCCCCCC
Details	mass density, [3] [kg/m3]	relative permittivity, [2]
x1 = 0.001264	745.351	–
x1 = 0.001971	–	2.00974
x1 = 0.002235	745.401	–
x1 = 0.002902	–	2.01098
x1 = 0.003662	–	2.01199
x1 = 0.004525	–	2.01314
x1 = 0.00462	745.527	–
x1 = 0.005614	–	2.01459
x1 = 0.006788	–	2.01613
x1 = 0.007983	–	2.01764
x1 = 0.009268	–	2.0192
x1 = 0.01089	–	2.02107
x1 = 0.01183	745.934	–
x1 = 0.01283	–	2.02321
x1 = 0.01445	–	2.02492
x1 = 0.01654	–	2.027
x1 = 0.01864	–	2.029
x1 = 0.02121	–	2.03137
x1 = 0.02459	–	2.03426
x1 = 0.02958	–	2.03864
x1 = 0.0323	747.221	–
x1 = 0.03739	–	2.04514
x1 = 0.04685	–	2.05286
x1 = 0.05669	748.861	2.06088
x1 = 0.06704	–	2.06945
x1 = 0.07856	–	2.07915
x1 = 0.08334	750.666	–
x1 = 0.08846	–	2.08773
x1 = 0.1051	–	2.10262
x1 = 0.1069	752.273	–

CCCCCCCCCCCC [dodecane]
Details	mass density [kg/m3]
[1]	745.435

CCCCCCCCCCCC [dodecane] + CCCCCO
Details	mass density [kg/m3]	relative permittivity
[2], x2 = 0.000482	–	2.00767
[2], x2 = 0.001089	–	2.00844
[2], x2 = 0.001796	–	2.00932
[2], x2 = 0.002589	–	2.01032
[2], x2 = 0.00344	–	2.0114
[2], x2 = 0.004549	–	2.0128
[2], x2 = 0.005875	–	2.01448
[2], x2 = 0.007295	–	2.01623
[2], x2 = 0.009216	–	2.0185
[2], x2 = 0.01162	–	2.02114
[2], x2 = 0.0141	–	2.02365
[2], x2 = 0.01688	–	2.02629
[2], x2 = 0.0211	–	2.03003
[2], x2 = 0.02571	–	2.03388
[2], x2 = 0.03208	–	2.03903
[2], x2 = 0.03962	–	2.045
[2], x2 = 0.04963	–	2.05298
[2], x2 = 0.05931	–	2.0609
[2], x2 = 0.07029	–	2.07011
[2], x2 = 0.08177	–	2.08023
[2], x2 = 0.09402	–	2.09162
[2], x2 = 0.1068	–	2.10429
[3], x2 = 0.00199	745.463	–
[3], x2 = 0.00476	745.503	–
[3], x2 = 0.00753	745.546	–
[3], x2 = 0.01643	745.714	–
[3], x2 = 0.02691	745.951	–
[3], x2 = 0.03525	746.159	–
[3], x2 = 0.05055	746.571	–
[3], x2 = 0.06514	746.983	–
[3], x2 = 0.08115	747.444	–
[3], x2 = 0.09931	747.979	–

CCCCCCCCCCCC [dodecane] + CCCCO
Details	mass density [kg/m3]	relative permittivity
[2], x2 = 0.000394	–	2.00775
[2], x2 = 0.001092	–	2.00861
[2], x2 = 0.001852	–	2.00955
[2], x2 = 0.002663	–	2.01056
[2], x2 = 0.003575	–	2.01169
[2], x2 = 0.004582	–	2.01295
[2], x2 = 0.005742	–	2.01438
[2], x2 = 0.007082	–	2.016
[2], x2 = 0.008478	–	2.01762
[2], x2 = 0.009996	–	2.0193
[2], x2 = 0.01196	–	2.02134
[2], x2 = 0.01472	–	2.02405
[2], x2 = 0.01783	–	2.02693
[2], x2 = 0.02067	–	2.02939
[2], x2 = 0.0262	–	2.03399
[2], x2 = 0.03349	–	2.03984
[2], x2 = 0.04201	–	2.04663
[2], x2 = 0.05197	–	2.05466
[2], x2 = 0.06201	–	2.06298
[2], x2 = 0.07269	–	2.07228
[2], x2 = 0.08613	–	2.08475
[2], x2 = 0.09876	–	2.09732
[3], x2 = 0.00247	745.45	–
[3], x2 = 0.00337	745.455	–
[3], x2 = 0.00504	745.466	–
[3], x2 = 0.0089	745.497	–
[3], x2 = 0.01274	745.535	–
[3], x2 = 0.01568	745.569	–
[3], x2 = 0.02553	745.703	–
[3], x2 = 0.04126	745.979	–
[3], x2 = 0.06044	746.372	–
[3], x2 = 0.07754	746.736	–
[3], x2 = 0.1034	747.278	–

CCCCCCCCCCCC [dodecane] + CCCO
Details	mass density [kg/m3]	relative permittivity
[2], x2 = 0.001113	–	2.00841
[2], x2 = 0.001805	–	2.00926
[2], x2 = 0.00262	–	2.01026
[2], x2 = 0.003582	–	2.01146
[2], x2 = 0.004766	–	2.01292
[2], x2 = 0.006045	–	2.01449
[2], x2 = 0.00741	–	2.01613
[2], x2 = 0.00918	–	2.01815
[2], x2 = 0.01131	–	2.0204
[2], x2 = 0.01408	–	2.02313
[2], x2 = 0.01818	–	2.02685
[2], x2 = 0.0234	–	2.03119
[2], x2 = 0.02953	–	2.03612
[2], x2 = 0.03486	–	2.04033
[2], x2 = 0.04243	–	2.04635
[2], x2 = 0.05033	–	2.05272
[2], x2 = 0.06022	–	2.06108
[2], x2 = 0.07048	–	2.07019
[2], x2 = 0.08292	–	2.08206
[2], x2 = 0.09516	–	2.09474
[2], x2 = 0.11	–	2.11157
[3], x2 = 0.00273	745.43	–
[3], x2 = 0.00429	745.426	–
[3], x2 = 0.007	745.424	–
[3], x2 = 0.01162	745.429	–
[3], x2 = 0.0181	745.456	–
[3], x2 = 0.0248	745.504	–
[3], x2 = 0.04304	745.689	–
[3], x2 = 0.06062	745.916	–
[3], x2 = 0.07866	746.164	–
[3], x2 = 0.1025	746.495	–

CCCCCCCCCCCC [dodecane] + CCO
Details	mass density [kg/m3]	relative permittivity
[2], x2 = 0.000779	–	2.00812
[2], x2 = 0.001608	–	2.00915
[2], x2 = 0.002571	–	2.01035
[2], x2 = 0.003578	–	2.0116
[2], x2 = 0.004642	–	2.01293
[2], x2 = 0.005982	–	2.01453
[2], x2 = 0.007701	–	2.01653
[2], x2 = 0.009387	–	2.0184
[2], x2 = 0.01111	–	2.02022
[2], x2 = 0.01308	–	2.02209
[2], x2 = 0.01589	–	2.02461
[2], x2 = 0.02008	–	2.02815
[2], x2 = 0.02502	–	2.03214
[2], x2 = 0.03098	–	2.03689
[2], x2 = 0.03829	–	2.04274
[2], x2 = 0.04601	–	2.04907
[2], x2 = 0.055	–	2.05682
[2], x2 = 0.06553	–	2.06649
[2], x2 = 0.07632	–	2.07716
[2], x2 = 0.08814	–	2.08986
[2], x2 = 0.1017	–	2.10596
[3], x2 = 0.00284	745.404	–
[3], x2 = 0.0035	745.397	–
[3], x2 = 0.00482	745.386	–
[3], x2 = 0.0076	745.363	–
[3], x2 = 0.01169	745.338	–
[3], x2 = 0.01342	745.329	–
[3], x2 = 0.0189	745.313	–
[3], x2 = 0.02678	745.305	–
[3], x2 = 0.04127	745.348	–
[3], x2 = 0.06055	745.432	–
[3], x2 = 0.08084	745.514	–
[3], x2 = 0.09645	745.601	–
